The text below walks through data of US20240182495A1, “ANTIBACTERIAL COMPOUNDS” (JANSSEN SCIENCES IRELAND UNLIMITED COMPANY, priority 2021, published 2024).

The nature of series [1]: Hep t1/2 (hepatocyte stability), mouse. Conditions: hepatocytes.
For series [2], the system named is CYPs (all isoforms, or the isoforms not named for that compound). As to the kind of experiment: CYP cocktail inhibition, all / other isoforms. The series is classed as in vitro ADME. Conditions: read-out: CYPS IC50 (all / others). From the text:
(§1) The compounds of the invention/examples may have advantages associated with in vitro potency, kill kinetics (i.e. bactericidal effect) in vitro, PK properties, food effect, safety/toxicity (including liver toxicity, coagulation, 5-LO oxygenase), metabolic stability, Ames II negativity, MINT negativity, aqueous based solubility (and ability to formulate) and/or cardiovascular effect e.g. on animals (e.g. anesthetized guinea pig). Data that is generated/calculated may be obtained using standard methods/assays, for instance that are available in the literature or which may be performed by a supplier (e.g. Microsomal Stability Assay—Cyprotex, Mitochondrial toxicity (Glu/Gal) assay—Cyprotex, as well as literature CYP cocktail inhibition assays). GSH can be measured (reactive metabolites, […]) to observe if a dihydrodiol is observed by LCMS (fragmentation ions), which would correspond to a dihydroxylation on the core heterocycle.

Series [3] in a line: physchem. Format: physicochemical.
Text: as §1

In a further series the test system is MDCK. As to the kind of experiment: MDCK permeability / efflux. Conditions: A to B with inhibitor.
Series [4] deals with Mycobacterium tuberculosis strain (EH4.0, GFP-expressing; Test 2: H37Rv). As to the kind of experiment: MIC determination against M. tuberculosis, Test 1 (and/or Test 2). Format: cell-based. Conditions: Mycobacterium tuberculosis, H37RV, 168 h, 7 days incubation, fluorescence.
Series [5] in a line: LM Clint (microsomal stability), mouse. The series is classed as in vitro ADME. Particulars: m (mouse) liver microsomes; read-out: LM Clint.
Text: as §1
On the technique in general: Liver microsomes are vesicles of endoplasmic reticulum, rich in cytochrome P450 enzymes.

Series [6] in a line: Mitochondrial toxicity (Glu/Gal) assay. Format: cell-based.
Text: as §1

A short description of series [7]: physchem.
The nature of series [8]: LM Clint (microsomal stability), human. Format: in vitro ADME. Particulars: h (human) liver microsomes; read-out: LM Clint.
Text: as §1

The target in the next series is T1, 2C8 (Homo sapiens, UniProt P10632).
T1 sequence (P10632 1-490): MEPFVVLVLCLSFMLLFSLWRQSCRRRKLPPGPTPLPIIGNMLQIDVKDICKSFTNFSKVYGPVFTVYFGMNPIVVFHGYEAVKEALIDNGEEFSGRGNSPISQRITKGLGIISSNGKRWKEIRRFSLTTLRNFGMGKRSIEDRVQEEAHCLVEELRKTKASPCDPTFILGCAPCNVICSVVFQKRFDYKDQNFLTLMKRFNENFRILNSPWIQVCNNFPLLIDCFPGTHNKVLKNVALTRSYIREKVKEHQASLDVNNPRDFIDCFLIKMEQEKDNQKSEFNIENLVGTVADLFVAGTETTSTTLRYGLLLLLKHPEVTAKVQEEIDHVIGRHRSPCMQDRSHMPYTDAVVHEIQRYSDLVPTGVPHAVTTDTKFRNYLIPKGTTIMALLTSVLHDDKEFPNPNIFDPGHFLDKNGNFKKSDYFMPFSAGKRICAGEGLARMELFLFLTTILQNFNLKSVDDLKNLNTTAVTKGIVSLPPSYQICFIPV
Description: CYP cocktail inhibition, 2C8. Format: in vitro ADME. Particulars: read-out: CYPS IC50 2C8.
Text: as §1

A short description of the next series: AMES II. Particulars: score.
Text: as §1

The target in the next series is hERG (Homo sapiens, UniProt Q12809). As to the kind of experiment: sync hERG. The series is classed as cell-based. (In general: The hERG channel carries a current that helps repolarise heart muscle cells.)
Series [9] is described as follows: Chemical stability testing in DMSO, ACN/H2O, ACN/0.1N HCl, ACN/0.1N NaOH (% by LCMS). Format: physicochemical. Conditions: 48 h, 30 μM. The method, then: Preliminary Protocol • Add 3 μl of a 10 mM DMSO stock solution to 1 ml of the following solvents in a 1.5 ml HPLC vial. • DMSO (reference solution) • H2O/Acetonitril 1/1 (assay solution) • 0.1N HCl/Acetonitril 1/1 (assay solution) • Mix well, […] LCMS • Compare the chromatograms of the two assay solutions with the reference solution and report the additional peaks as degradation peaks

≈ marks a conversion by molar mass, not a printed value.

Sequence of hERG (Q12809 whole entry): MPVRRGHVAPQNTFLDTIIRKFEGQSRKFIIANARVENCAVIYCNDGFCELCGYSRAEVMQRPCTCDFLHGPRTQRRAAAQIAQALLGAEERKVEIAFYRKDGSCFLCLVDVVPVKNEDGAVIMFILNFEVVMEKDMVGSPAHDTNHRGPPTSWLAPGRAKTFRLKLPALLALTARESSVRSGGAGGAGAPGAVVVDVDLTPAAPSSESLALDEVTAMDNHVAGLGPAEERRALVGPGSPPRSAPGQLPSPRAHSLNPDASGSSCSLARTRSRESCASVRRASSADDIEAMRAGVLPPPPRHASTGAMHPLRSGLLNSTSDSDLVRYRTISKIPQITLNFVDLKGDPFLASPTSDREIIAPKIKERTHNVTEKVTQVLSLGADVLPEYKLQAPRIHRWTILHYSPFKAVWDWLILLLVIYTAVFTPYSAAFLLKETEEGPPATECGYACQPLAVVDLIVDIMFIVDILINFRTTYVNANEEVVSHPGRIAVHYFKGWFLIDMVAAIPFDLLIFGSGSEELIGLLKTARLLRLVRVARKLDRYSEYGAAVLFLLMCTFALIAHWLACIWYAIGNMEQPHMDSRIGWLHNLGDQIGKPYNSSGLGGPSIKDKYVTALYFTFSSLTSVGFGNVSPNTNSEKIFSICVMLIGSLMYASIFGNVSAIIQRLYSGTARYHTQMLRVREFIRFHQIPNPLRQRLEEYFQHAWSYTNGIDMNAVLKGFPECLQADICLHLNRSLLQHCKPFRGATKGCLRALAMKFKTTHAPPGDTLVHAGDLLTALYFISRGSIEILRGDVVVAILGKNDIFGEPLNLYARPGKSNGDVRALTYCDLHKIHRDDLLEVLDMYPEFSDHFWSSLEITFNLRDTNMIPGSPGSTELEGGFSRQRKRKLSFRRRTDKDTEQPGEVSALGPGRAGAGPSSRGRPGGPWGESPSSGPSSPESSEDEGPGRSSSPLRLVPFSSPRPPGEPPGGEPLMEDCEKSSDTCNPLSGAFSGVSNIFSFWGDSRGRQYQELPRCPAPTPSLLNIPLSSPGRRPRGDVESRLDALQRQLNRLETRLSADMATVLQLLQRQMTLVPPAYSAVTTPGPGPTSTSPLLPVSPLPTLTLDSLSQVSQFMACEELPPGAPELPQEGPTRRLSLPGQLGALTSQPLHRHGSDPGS

With `CCc1nc2ncc(C)cn2c1C(=O)NCc1ccc(-c2cc3n(n2)CCN(S(=O)(=O)C(F)(F)F)C3)c(F)c1` [Compound 82], the half-life in series [1] was 16.5 min. Also, the IC50 in series [2] is above 19.5 µM; in series [4], 0.00282 µM; on 2C8, 10.6 µM; against hERG, 20.4 µM. In addition, the thermodynamic solubility was 12.3 µM (≈ 6.96 µg/mL) in the series “physchem [3]” (pH 2, simulated gastric fluid, thermodynamic from solid) and below 0.02 µM in “physchem [3]” (pH 4, aqueous buffer). For the same compound, the “MDCK AB+inh” value in the series with MDCK came to 16.2. Further, the microsomal CLint turned out to be 28 µL/min/mg in series [5] and 231 µL/min/mg in series [8]. Further, the “Glu/Gal: Gal” value in series [6] (galactose medium) was above 25. In [6] (glucose medium), the “Glu/Gal: Glu” value is recorded as above 25. The solubility came to 24.5 µM (≈ 13.9 µg/mL) in the series “physchem [7]” (fassif) and 8.8 µM (≈ 4.98 µg/mL) in the series “physchem [7]” (fessif). Besides, the “AMES II” value in “AMES II” is 1. Besides, the “chemical stability (% by LCMS)” value in [9] and in [9] (pH 1.6) was 100% throughout.

As usually defined, the half-life is how long it takes for the measured level to halve. Low values mean rapid decline, high ones slow decline. The term thermodynamic solubility denotes solubility found after equilibrating the solid with the medium. What is called solubility is the concentration that dissolves in the medium under given conditions. Low values mean little dissolved substance, high ones much dissolved substance.
